Experimental data as given in patent publication US20220274997A1, “PIM KINASE INHIBITOR COMPOSITIONS AND USES THEREOF” (Snap Bio, Inc., priority 2019, published 2022).

Tested on: DU-145
Experiment: CellTiter-Glo cancer cell growth inhibition, DU-145
Assay type: cell-based
Settings: Homo sapiens, DU-145, 72 h
Source text: The CellTiter-Glo® Luminescent Cell Viability Assay is a sensitive homogeneous method to determine the number of viable cells in culture, Detection is based on using the luciferase reaction to measure the amount of ATP from viable cells. The amount of ATP in cells correlates with cell viability. Within minutes after a loss of membrane integrity, cells lose the ability to synthesize ATP, and endogenous ATPases destroy any remaining ATP; thus the levels of ATP fall precipitously. The CellTiter-Glo® Reagent does three things upon addition to cells. It lyses cell membranes to release ATP; it inhibits endogenous ATPases, and it provides luciferin, luciferase and other reagents necessary to measure ATP using a bioluminescent reaction. The unique properties of a proprietary stable luciferase. There is a linear relationship (r2=0.99) between the luminescent signal and the number of cells from 0 to 50.000 cells per well.
All assays were performed by Reaction Biology Corporation (Malvern, Pa.) or ChemDiv, Inc. (San Diego, Calif.). […]
Conditions: 37° C., air 95%; HEPA-filtered carbon dioxide (CO2) 5%, humidified atmosphere. • Cells were grown in 175 cm^2 flasks to 80-90% of confluency. • Culture media was aspirated and cell layer was briefly rinsed with Versen solution to remove all traces of serum. • 2 mL of accutase was added to cells. • Flasks were retuned to incubator for 5 min to allow cell detachment. • Add 6.0 mL of complete growth medium. • Single cell suspension was created by gently pipetting. • Cells were counted using a Hematocytometer and a suspension with the desired cell concentration was prepared. […]
Stock solutions ([…]) were diluted with cell culture media to produce 500× serial dilutions and […] of final compound dilutions were added to cells in assay plates to screen a series of 10 doses starting at 100 mM. […] Luminescence intensity was measured for each well using the Tecan M 1000 microplate reader after 5 min of incubation with CellTiter-Glo Reagent. The number of viable cells in culture was determined based on quantitation of the ATP present in each culture well. […]

Q: With `CN[C@@H]1C[C@H]2O[C@@](C)([C@@H]1OC)n1c3ccccc3c3c4c(c5c6ccccc6n2c5c31)C(=O)NC4` [Staurosporine, reference compound] as the compound, how does the EC50 read?
A: 4.8 nM
